From US6228872A, “Neurotrophic diamide and carbamate agents” (Bristol-Myers Squibb Company, priority 1999, dated 2001) come the findings set out here.

pKi: −log10 of the molar value. Read-outs that look alike come from different tables or passages of the source.

The assay concerns the target FKBP12 (Homo sapiens, UniProt P62942). Briefly: FKBP12 Rotamase Inhibition Assay. The format is biochemical. The settings on record: for inhibition at 10 µM: read-out: % inhib. at 10 μM; for pKi: apparent Ki, 4° C., substrate succinyl-Ala-Leu-Pro-Phe-p-nitroanilide. The procedure:
FKBP12 Rotamase Inhibition Assay
The rotamase activity of FKBP-12 was measured by an adaptation of the assay described by Kofron et al. (Biochemistry, 30, pp. 6127-6134 (1991)). The assay was carried out at 4° C. with 1 mg chymotrypsin/mL of assay with succinyl-Ala-Leu-Pro-Phe-p-nitroanilide as the substrate. Chymotrypsin rapidly hydrolyzes the peptide bond on the C-terminal side of the Phe of the trans form of the peptide and releases the chromogenic p-nitroaniline. The rate of the reaction is controlled by the rate of conversion of the cis form of the peptide to the trans-form, the reaction catalyzed by FKBP12. The apparent Ki values for inhibition of the rotamase activity were determined by measuring decreases in the first order rate constant of the reaction catalyzed by FKBP12 as a function of the concentrations of the compounds described herein. Ki is the concentration of the compound that causes 50 percent inhibition of rotamase activity which is indicative of neurite outgrowth activity.

The mark [1] stands for this setting: Table 2, 1 μM (values marked *), read-out: % inhib. at 1 μM*.

FKBP12, sequence (P62942 whole entry, species assumed): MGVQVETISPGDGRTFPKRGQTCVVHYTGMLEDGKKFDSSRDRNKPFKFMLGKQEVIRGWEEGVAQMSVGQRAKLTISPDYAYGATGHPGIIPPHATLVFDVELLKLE

On to `COc1cc(C(F)(F)C(=O)N2CCC[C@H]2COC(=O)N(CCc2ccccc2)CCc2c[nH]c3ccccc23)cc(OC)c1OC` [Example 25, N-(3,4,5-Trimethoxyphenyl)-difluoroacetyl-L-pyrrolidinylmethyi-[N',N'-2-(3-indolyl)ethyl-2-phenylethylamino]carbamate], for which the inhibition at 1 µM (Table 1, 1 μM (values marked *), read-out: % inhib. at 1 μM*) came to 11%.

Consider `COc1cc(C(F)(F)C(=O)N2CCC[C@H]2COC(=O)N(CCCCc2cccnc2)CCc2ccccc2)cc(OC)c1OC` [Example 30, N-(3,4,5-Trimethoxyphenyl)-difluoroacetyl-L-pyrrolidinylmethyl-[N',N'-4-(3-pyridyl)butyl-2-phenylethylamino]carbamate], for which, where the note is “Table 2”, the inhibition at 10 µM turned out to be 97%.

Turning to `COc1cc(C(=O)C(=O)N2CCCCC2COC(=O)N(CCCc2ccccc2)CCCc2cccnc2)cc(OC)c1OC` (racemic) [Example 19, N-(3,4,5-Trimethoxyphenyl)oxalyl-(±)-piperidinylmethyl-[N',N'-3-(3-pyridyl)-propyl-3-phenylpropylamino]carbamate], under “Table 2”, the inhibition at 10 µM amounted to 11%.

For `CC(C)(C)C(=O)C(=O)N1CCC[C@H]1COC(=O)NCCCc1ccccc1` [Example 6, N-Trimethylpyruvyl-L-pyrrolidinylmethyl-[N'-3-phenylpropylamino]carbamate], the inhibition at 10 µM (Table 1) is 32%.

With `COc1cc(C(=O)C(=O)N2CCC[C@H]2COC(=O)N(CCCc2ccccc2)CCCc2cccnc2)cc(OC)c1OC` [Example 7, N-(3,4,5-Trimethoxyphenyl)oxalyl-L-pyrrolidinylmethyl-[N',N'-3-(3-pyridyl)propyl-3-phenylpropylamino]carbamate], under “Table 2”, the inhibition at 10 µM was determined as 100% and the pKi – broadly, −log10 of the Ki, conventionally taken in molar units – was 6.35.

As for `COc1cc(C(F)(F)C(=O)N2CCCCC2COC(=O)N(CCCc2cccnc2)Cc2ccccc2)cc(OC)c1OC` (racemic) [Example 41, N-(3,4,5-Trimethoxyphenyl)-difluoroacetyl-(±)-piperidinylmethyl-[N',N'-3-(3-pyridyl)propyl-benzylamino]carbamate], under setting [1], the inhibition at 1 µM was 11%.

`COc1cc(C(F)(F)C(=O)N2CCC[C@H]2CCC(=O)N(CCCc2ccccc2)CCCc2cccnc2)cc(OC)c1OC` [Example 45, N,N-(3-Phenylpropyl)-3-(3-pyridyl)propyl-2-[(S)-N'-(3,4,5-Trimethoxyphenyl)-difluoroacetyl-2-pyrrolidinyl]propionamide]: the inhibition at 1 µM (Table 4, 1 μM, read-out: % rotamase inhib. at 1 μM) came out at 42%.

Take `COc1cc(C(=O)C(=O)N2CCC[C@H]2COC(=O)N(CCCc2cccnc2)CCc2ccccc2)cc(OC)c1OC` [Example 12, N-(3,4,5-Trimethoxyphenyl)oxalyl-L-pyrrolidinylmethyl-[N',N'-3-(3-pyridyl)propyl-2-phenylethylamino]carbamate]: the inhibition at 10 µM (Table 2) is 80%.

As for `COc1cc(C(=O)C(=O)N2CCC[C@H]2COC(=O)N(CCCCc2ccccc2)CCCc2cccnc2)cc(OC)c1OC` [Example 11, N-(3,4,5-Trimethoxyphenyl)oxalyl-L-pyrrolidinylmethyl-[N',N'-3-(3-pyridyl)propyl-4-phenylbutylamino]carbamate], for the setting “Table 2”, the inhibition at 10 µM was determined as 96% and the pKi is 6.27.

As for `CC(C)(C)C(=O)C(=O)N1CCC[C@H]1COC(=O)N(CCCc1ccccc1)CCCc1cccnc1` [Example 1, N-Trimethylpyruvyl-L-pyrrolidinylmethyl-[N',N'-3-(3-pyridyl)propyl-3-phenylpropylamino]carbamate], the inhibition at 10 µM (Table 1) amounted to 93%.

For `COc1cc(C(=O)C(=O)N2CCC[C@H]2COC(=O)N(CCCCc2cccnc2)CCc2ccccc2)cc(OC)c1OC` [Example 15, N-(3,4,5-Trimethoxyphenyl)oxalyl-L-pyrrolidinylmethyl-[N',N'-4-(3-pyridyl)butyl-2-phenylethylamino]carbamate], the inhibition at 10 µM (Table 2) was 82%.

For the molecule `COc1cc(C(F)(F)C(=O)N2CCCCC2COC(=O)N(CCCCc2ccccc2)CCCc2cccnc2)cc(OC)c1OC` (racemic) [Example 43], the inhibition at 1 µM under setting [1] worked out at 0%.
